Measured values from patent publication US10028973B2, “Using DNA methyltransferase inhibitors to treat calcific aorta valve disease” (Mayo Foundation for Medical Education and Research, priority 2014, dated 2018).

Tests used:
[1] = test system: pig aortic valve interstitial cells; test: Calcium deposition in aortic valve interstitial cells in vitro; assay type: cell-based; details: FIG. 7
Description: FIG. 7 is a graph plotting the effects of DNMT inhibition with DAC calcium deposition in pig aortic valve interstitial cells in vitro.

mouse aortic valves = test: Acute Decitabine treatment of mice with established CAVD: gene expression in aortic valve tissue by quantitative real-time RT-PCR; assay type: in vivo; details: ldlr−/−/apoB100/100 (LA) mice on Western diet 6 months, 0.5 or 1 mg/kg/day i.p. for 5 days
Procedure: FIG. 5 is a pair of graphs plotting the effects of DNMT inhibition with decitabine (DAC) on expression of the pro-osteogenic signaling genes, Runx2 and osteopontin (SPP1), in mouse aortic valves in vivo. DAC was administered using daily intraperitoneal injections at the doses indicated (mg/kg/day) for 5 days, and gene expression was measured using quantitative real-time RT-PCR and mRNA isolated from mouse aortic valve tissue.
FIG. 6 is a graph plotting the effects of DNMT inhibition with DAC on expression of the anti-osteogenic gene, FABP4 (a PPARγ target). DAC was administered using daily intraperitoneal injections at the doses indicated (mg/kg/day) for 5 days, and gene expression was measured using quantitative real-time RT-PCR and mRNA isolated from mouse aortic valve tissue.
To determine whether acute DNA methyltransferase inhibition promotes anti-calcific gene expression patterns in mice with established calcific aortic valve disease, ldlr^−/−/apoB^100/100 (LA) mice were placed on a Western diet for 6 months (which produces mild to moderate valvular dysfunction), and treated with vehicle or Decitabine (5-aza-2′-deoxycytidine; “DAC”) for 5 days (0.5 or 1 mg/kg/day, i.p.). Changes in cardiac and aortic valve function at 3 and 6 months are evaluated. […] The second group is used for semi-quantitative histological/immunohistochemical evaluation of aortic valve (n=10). The third group is used for genome-wide evaluation of gene expression using microarrays (n=20), and the fourth group is used for high-resolution μCT scanning for quantitation of calcium burden in aortic valve and root (n=15).
Quantitative Real-Time RT-PCR: Aortic valve cusps are dissected, and tissue is processed and stored using commercially available lysis buffer with β-mercaptoethanol (Miller et al., Am J Physiol Heart Circ Physiol 298:H1600-1607, 2010). Quantitative real-time RT-PCR studies confirming array-detected changes in gene expression are performed on a StepOne Plus instrument (Applied Biosystems).

[2] = test system: hypercholesterolemic mice; test: Chronic low-dose Decitabine treatment: progression of aortic valve calcification and stenosis (cusp separation distance, echocardiography); assay type: in vivo, mouse; details: FIG. 8
Procedure: FIG. 8 is a graph plotting cusp separation distance in control mice and in mice treated with DAC (0.1 mg/kg i.p., 2 days/week for 3 months). […] Echocardiographic evaluation of aortic valve function: Echocardiographic evaluation of aortic valve function is conducted as described elsewhere (Miller et al. 2009, supra; Hinton et al., Am J Physiol Heart Circ Physiol 294:[…]-2488, 2008; Barrick et al., Am J Physiol Heart Circ Physiol 297:[…]-75, 2009; and Miller et al., Circ Res 108:1392-1412, 2011). In brief, a Vevo 2200 small animal ultrasound unit is used to evaluate 1) cusp separation distance from M-mode images, 2) peak transvalvular blood velocity, and 3) color Doppler screening for evidence of aortic valve regurgitation. […] Short- and long-axis views of the left ventricle also are acquired to evaluate ventricular function (Berry et al., J Cardiovasc Magn Reson 11:27, 2009).

**Q.** `Nc1ncn([C@H]2C[C@H](O)[C@@H](CO)O2)c(=O)n1` [Decitabine, 5-Aza-2′-deoxycytidine] was tested. Which “calcification in aortic valve interstitial cells” value [1] did it give?
**A.** Its value is “reduced calcification”.

**Q.** And the Sp7 expression (mouse aortic valves)?
**A.** Its Sp7 expression is “dose-dependent reductions”.

**Q.** What about the Runx2 expression (mouse aortic valves; FIG. 5) of the same compound?
**A.** Its Runx2 expression is “dose-dependent reductions”.

**Q.** What about the “PPARγ target gene expression (e.g., FABP4)” value (mouse aortic valves; FIG. 6) of the same compound?
**A.** Its value is “increased PPARγ target gene expression”.

**Q.** What about the “progression of aortic valve stenosis (cusp separation distance)” value ([2]; 0.1 mg/kg i.p., 2 days/week for 3 months, larger cusp separation distance = improved valve function) of the same compound?
**A.** Its value is “slowed progression of aortic valve stenosis”.

**Q.** And the “progression of aortic valve calcification and stenosis” value ([2]; low-dose, hypercholesterolemic mice in vivo)?
**A.** Its value is “successfully slowed progression”.
